From patent publication US4794114A, “Inhibition of interleukin-1 production by monocytes and/or macrophages” (SmithKline Beckman Corporation, priority 1987, dated 1988)
Where two headings read alike, the source gives them in different places.

How the values were obtained:
[1] = test system: IL-1 production by human monocytes; experiment: in vitro IL-1 production by LPS-stimulated human peripheral blood monocytes (EL-4 readout); assay type: cell-based; settings: for IC50 / inhibition at 1 µM / inhibition at 10 µM / inhibition at 0.1 µM: Homo sapiens, Monocyte; for IC50: 1 ng/ml LPS, 1 hr pretreatment; for inhibition at 1 µM: 10^-6 M; for inhibition at 10 µM: 10^-5 M; for inhibition at 0.1 µM: 10^-7 M
Method: The effects of antiinflammatory/antiarthritic drugs of different classes, including Compound 1 on the in vitro production of IL-1 by human monocytes was examined.
(§1) Bacterial lipopolysaccharide (LPS) was used to induce IL-1 production by human peripheral blood monocytes. IL-1 activity was measured by its ability to stimulate a Interleukin 2 (IL-2) producing cell line (EL-4) to secrete IL-2, in concert with A23187 ionophore, according to the method of Simon et al., J. Immunol. Methods, 84, 85, (1985). Human peripheral blood monocytes were isolated and purified from either fresh blood preparations from volunteer donors, or from blood Bank buffy coats, according to the procedure of Colotta et al., J. Immunol., 132, 936 (1984). 1×10^6 of such monocytes are plated in 24-well plates at a concentration of 2 million/ml per well. The cells were allowed to adhere for 2 hours, after which time non-adherent cells were removed by gentle washing. Test compounds were then added to the cells for 1 hour (hr) before the addition of lipopolysaccharide (10 ng/ml unless otherwise noted), and the cultures were incubated at 37° C. for an additional 24 hours. At the end of the incubation period, culture supernatants were removed and clarified of cells and all debris. Culture supernatants were immediately assayed for IL-1 biological activity as well as prostaglandin and/or leukotriene concentrations by radioimmunoassay.
^(a) All compounds, except chloroquine, were dissolved in absolute
ethanol at 10^-2 M, which was subsequently diluted further in tissue
assay system at doses tested. Furthermore, test samples were dialyzed
prior to testing in the IL1 assay.
In order to elucidate the mechanism by which Compound 1 mediates its anti-inflammatory activity, the ability of this compound and two closely related analog metabolites, (i.e., the analogs of Compound 1 wherein X is S(0)n and n is 1 or 2) to inhibit human IL-1 production in vitro was evaluated according to the method of Example 1. Briefly, 1×10^6 human peripheral blood monocytes were plated in 24-well plates and allowed to adhere for 1 hr at 37° C. The above compounds were added to a final concentration of 10^-5 M to 10^-8 M. The monocytes were stimulated to produce IL-1 with 1 ng/ml LPS after a 1 hr pretreatment of the cells with the respective compounds.
The inhibitory effect of additional compounds of Formula (I) on the in vitro production of IL-1 production of IL-1 by human monocytes was determined according to the procedure of Examples 1 and 2.

[2] = test system: IL-1 production by splenic adherent cells; experiment: adjuvant-induced arthritis in the rat: IL-1 production by LPS-stimulated splenic adherent cells; assay type: in vivo; settings: for IL-1 Production (splenic adherent cells), % normal control: mg/kg: Compound 1 60, indomethacin 2.0, prednisolone 10, methotrexate 0.3, D-penicillamine 50; for effect in adjuvant arthritic rats: short-term treatment
Method: (§2) Adjuvant-induced arthritis in the rat is a model of systemic inflammation with characteristics similar to rheumatoid arthritis in man. […] This model was employed to assess the effect of Compound 1 in vivo on this elevated IL-1 production. Briefly, rats were injected on day 0 with Freund's complete adjuvant in the right hind leg. Drugs were prepared as a suspension in tragacanth and administered daily per os either prophylactically (days 1 to 16) or therapeutically in a short-term modality (days 14 to 16). In all cases, final administration of drug occurred at 3 hours prior to sacrifice. Spleens were removed from these rats and the adherent cells were assessed for their ability to produce IL-1 in vitro in response to stimulation by LPS.
(§3) PROPHYLACTIC TREATMENT: Drugs were administered daily p.o. as a suspensio
(§4) in tragacanth from day 1 to day 16. Final dose given 3 hrs before
(§5) TREATMENT: Drugs were administered daily p.o. as above from
(§6) day 14 to day 16. Final dose given 3 hrs before sacrifice.
(§7) ***P < 0.01 Indomethacin 2.0 mg/kg
(§8) **P < 0.05 Compound 1 60 mg/kg
(§9) *P < 0.10 Prednisolone 10 mg/kg
(§10) D-Penicillamine 50 mg/kg

splenic adherent cells = experiment: adjuvant-induced arthritis in the rat: % splenic adherent cells; assay type: in vivo; settings: mg/kg: Compound 1 60, indomethacin 2.0, prednisolone 10, methotrexate 0.3, D-penicillamine 50
Method: as §2, §3, §4, §5, §6, §7, §8, §9, §10

[3] = test system: adjuvant-induced arthritis in the rat; experiment: adjuvant-induced arthritis in the rat: right leg paw edema; assay type: in vivo; settings: mg/kg: Compound 1 60, indomethacin 2.0, prednisolone 10, methotrexate 0.3, D-penicillamine 50
Method: as §2, §3, §4, §5, §6, §7, §8, §9, §10

C57B1/6 mice = experiment: lethality of LPS in D-galactosamine treated C57B1/6 mice; assay type: in vivo, mouse; settings: for Lethality, No. of Death/Total No.: D-Galactosamine 500 mg/kg i.v.
Method: (§11) Mice are very resistant to the lethal effects of bacterial lipopolysaccharides (LPS). D-Galactosamine (D-GALN) induces a high degree of sensitization to the lethal effects of LPS in mice and other experimental animals. [See, Galanos et al., Proc. Natl. Acad Sci. USA., 76, 5939 (1979)]. In mice, depending on the strain and age, the sensitivity to endotoxin can be increased many thousand-fold.
A number of preliminary experiments were carried out to establish this model of lethal endotoxin shock. LPS concentrations of up to 1 mg/mouse are not lethal in C57B1/6 mice. When injected i.v. with D-GALN (500 mg/kg), however, the sensitivity increases so that 0.1 ug becomes a lethal dose (Table 5). The concentration of D-GALN required to obtain this effect is 400-500 mg/kg.
All compounds were administered i.v.

PGE2 = experiment: in vitro prostaglandin (PGE2) synthesis by LPS-stimulated human monocytes, RIA; assay type: cell-based; settings: for inhibition at 10 µM / inhibition at 1 µM / inhibition at 0.1 µM: Homo sapiens, Monocyte, read-out: % Inhibition PGE2; for inhibition at 10 µM: 10^-5 M; for inhibition at 1 µM: 10^-6 M; for inhibition at 0.1 µM: 10^-7 M
Method: as §1
^(c) PGE2 was assayed using an RIA kit.

[4] = test system: endotoxin shock in C57B1/6 mice; assay type: in vivo, mouse; settings: for protection from lethal effects of LPS/GALN: mouse, in vivo
Method: as §11
A number of preliminary experiments were carried out to establish this model of lethal endotoxin shock.

in vitro = assay type: cell-based, human; settings: human, peripheral blood monocytes
Method: as §1
^(b) At doses at or above 10^-5 M, this compound exerted some

[5] = Table 3, read-out: % Inhibition @ 10^-6 M
[6] = prophylactic, daily p.o. days 1-16
[7] = therapeutic, daily p.o. days 14-16

[O-][S+]1CCn2c1nc(-c1ccc(F)cc1)c2-c1ccncc1 (stereo not drawn) [Compound 2]
IC50 [1]: 800 nM
inhibition at 1 µM [1, 5]: 56%

CN(Cc1cnc2nc(N)nc(N)c2n1)c1ccc(C(=O)N[C@@H](CCC(=O)O)C(=O)O)cc1 [METHOTREXATE, methotrexate]
IL-1 Production (splenic adherent cells), % normal control [2, 6]: 67 ± 56 % normal control
IL-1 Production (splenic adherent cells), % normal control [2, 7]: 436 ± 178 % normal control
effect in adjuvant arthritic rats ([2]; therapeutic): no effect
% Adherent Cells (splenic), % normal control (splenic adherent cells; [6]): 134 ± 10 % normal control
% Adherent Cells (splenic), % normal control (splenic adherent cells; [7]): 284 ± 175 % normal control
Right leg paw edema, % normal control [3, 6]: 96 ± 4 % normal control
Right leg paw edema, % normal control [3, 7]: 194 ± 2 % normal control

C[C@]12C=CC(=O)C=C1CC[C@@H]1[C@@H]2[C@@H](O)C[C@@]2(C)[C@H]1CC[C@]2(O)C(=O)CO [PREDNISOLONE, Prednisolone]
IL-1 Production (splenic adherent cells), % normal control [2, 6]: 168 ± 40 % normal control
IL-1 Production (splenic adherent cells), % normal control [2, 7]: 300 ± 280 % normal control
% Adherent Cells (splenic), % normal control (splenic adherent cells; [6]): 184 ± 79 % normal control
% Adherent Cells (splenic), % normal control (splenic adherent cells; [7]): 82 ± 47 % normal control
Right leg paw edema, % normal control [3, 6]: 125 ± 22 % normal control
Right leg paw edema, % normal control [3, 7]: 147 ± 18 % normal control

N[C@H]1C(O)O[C@H](CO)[C@H](O)[C@@H]1O (stereo partly drawn) [D-Galactosamine]
Lethality, No. of Death/Total No. (C57B1/6 mice; 6 Hr.): 0/10
Lethality, No. of Death/Total No. (C57B1/6 mice; 24 Hr.): 0/10
D-GALN concentration required to sensitize to LPS (C57B1/6 mice; with LPS, i.v.): 400 to 500 mg/kg

CC(C)Cc1ccc(C(C)C(=O)O)cc1 (stereo not drawn) [Ibuprofen, ibuprofen]
inhibition of prostaglandin synthesis (PGE2): highly active in inhibiting prostaglandin synthesis
inhibition at 10 µM (PGE2): 97%
inhibition at 1 µM (PGE2): 71%
inhibition at 0.1 µM (PGE2): 63%
inhibition of IL-1 production [1]: virtually no effect on IL-1 production
inhibition at 10 µM ([1]; read-out: % Inhibition IL-1): 9%
inhibition at 1 µM ([1]; read-out: % Inhibition IL-1): 0%
inhibition at 0.1 µM ([1]; read-out: % Inhibition IL-1): 0%

COc1ccc(-c2nc3n(c2-c2ccncc2)CCC3)cc1 [Compound 7]
inhibition at 1 µM [1, 5]: 40%

C[C@@H]1C[C@H]2[C@@H]3CCC4=CC(=O)C=C[C@]4(C)[C@@]3(F)[C@@H](O)C[C@]2(C)[C@@]1(O)C(=O)CO [Dexamethasone]
protection ([4]; administered 24 hours and 1 hour prior to LPS/GALN): provided protection

O=S1(=O)CCn2c1nc(-c1ccc(F)cc1)c2-c1ccncc1 [Compound 3]
IC50 [1]: 610 nM
inhibition at 1 µM [1, 5]: 54%

Fc1ccc(-c2nc3n(c2-c2ccncc2)CCC3)cc1 [Compound 5]
protection from lethal effects of LPS/GALN [4]: protective effects
inhibition at 1 µM [1, 5]: 78%

COc1ccc(-c2nc3n(c2-c2ccncc2)CCCC3)cc1 [Compound 8]
inhibition at 1 µM [1, 5]: 30%

CC(=O)OC[C@H]1O[C@@H]([S-])[C@H](OC(C)=O)[C@@H](OC(C)=O)[C@@H]1OC(C)=O.CCP(CC)CC.[Au+] [auranofin]
effect in adjuvant arthritic rats ([2]; therapeutic): no effect

Fc1ccc(-c2c(-c3ccncc3)nc3n2CCS3)cc1 [Compound 4]
inhibition at 1 µM [1, 5]: 46%

COc1ccc(-c2nc3n(c2-c2ccncc2)CCS3)cc1 [Compound 6]
inhibition at 1 µM [1, 5]: 64%

CC(C)(S)[C@@H](N)C(=O)O [D-PENICILLAMINE, d-penicillamine]
IL-1 Production (splenic adherent cells), % normal control [2, 6]: 336 ± 170 % normal control
IL-1 Production (splenic adherent cells), % normal control [2, 7]: 374 % normal control
effect in adjuvant arthritic rats ([2]; therapeutic): no effect
% Adherent Cells (splenic), % normal control (splenic adherent cells; [6]): 372 ± 117 % normal control
% Adherent Cells (splenic), % normal control (splenic adherent cells; [7]): 217 ± 6 % normal control
Right leg paw edema, % normal control [3, 6]: 184 ± 20 % normal control
Right leg paw edema, % normal control [3, 7]: 191 ± 13 % normal control

CC(Cc1ccc(O)c(O)c1)C(C)Cc1ccc(O)c(O)c1 (stereo not drawn) [NDGA, nordihydroguaiaretic acid]
inhibition of prostaglandin synthesis (PGE2): little inhibitory effect on prostaglandin synthesis
inhibition at 10 µM (PGE2): 25%
inhibition at 1 µM (PGE2): 0%
inhibition at 0.1 µM (PGE2): 0%
inhibition of IL-1 production [1]: marginally active in inhibition of IL-1 production
inhibition at 10 µM ([1]; read-out: % Inhibition IL-1): 88%
inhibition at 1 µM ([1]; read-out: % Inhibition IL-1): 33%
inhibition at 0.1 µM ([1]; read-out: % Inhibition IL-1): 31%
viability at 24 h, 10 µM (in vitro): ~50%

COc1ccc2c(c1)c(CC(=O)O)c(C)n2C(=O)c1ccc(Cl)cc1 [INDOMETHACIN, indomethacin]
IL-1 Production (splenic adherent cells), % normal control [2, 6]: 274 ± 100 % normal control
IL-1 Production (splenic adherent cells), % normal control [2, 7]: 330 ± 121 % normal control
effect in adjuvant arthritic rats ([2]; therapeutic): no effect
% Adherent Cells (splenic), % normal control (splenic adherent cells; [6]): 480 ± 189 % normal control
% Adherent Cells (splenic), % normal control (splenic adherent cells; [7]): 394 ± 253 % normal control
Right leg paw edema, % normal control [3, 6]: 113 ± 8 % normal control
Right leg paw edema, % normal control [3, 7]: 145 ± 18 % normal control

CN/C(=N/CCSCc1nc[nH]c1C)NC#N [cimetidine]
protection from lethal effects of LPS/GALN [4]: not

O=C1CCN(c2ccccc2)N1 [Phenidone, phenidone]
inhibition of prostaglandin synthesis (PGE2): little inhibitory effect on prostaglandin synthesis
inhibition at 1 µM (PGE2): 0%
protection from lethal effects of LPS/GALN [4]: protective effects
inhibition of IL-1 production [1]: marginally active in inhibition of IL-1 production
inhibition at 1 µM ([1]; read-out: % Inhibition IL-1): 18%
inhibition at 0.1 µM ([1]; read-out: % Inhibition IL-1): 0%
